Values after ≈ are worked out from the molar mass of the structure shown.
Assay: physchem
Details: for solubility: water, thermodynamic from solid
Experimental: Analysis of the blend was done and its solubility in water was analyzed (table 3).
All the tablets prepared as shown in table 8 were analyzed in water to check whether there is an enhancement in solubility of the drug when compared to the pure form (table 9).
The compressed tablets prepared according table 13 were analyzed in water to check whether there is any enhancement in solubility of the drug when compared to the pure form (table 14).
All the blends and tablets prepared according to table 15 were analyzed in water for any enhancement in solubility of the drug when compared to the pure form.
The capsules were further analyzed for water solubility of the active ingredient.
The solution was spray dried using a spray drier (Inlet temperature: 55-60° C., Aspirator: 90-100%).

| Compound | solubility [µg/mL] | Solubility of AFI/API in water [µg/mL] |
| --- | --- | --- |
| NC(=O)N1c2ccccc2C=Cc2ccccc21 [Experiment C-9, Carbamazepine] | 240 (≈ 1020 µM) | – |
| Cc1ccc(S(=O)(=O)NC(=O)NN2CC3CCCC3C2)cc1 (centres unmarked) [Experiment C-8, Gliclazide] | 21 (≈ 64.9 µM) | – |
| Cc1ccc(-c2cc(C(F)(F)F)nn2-c2ccc(S(N)(=O)=O)cc2)cc1 [Experiment C-1, Celecoxib] | 0.1 (≈ 0.262 µM) | – |

Further lines, results first:

| solubility [µg/mL] | Solubility of AFI/API in water [µg/mL] | Compound |
| --- | --- | --- |
| – | 0.0 | COc1cc(/C=C/C(=O)CC(=O)/C=C/c2ccc(O)c(OC)c2)ccc1O [Experiment C-4, Curcumin] |
| 3.6 (≈ 11.9 µM) | – | O=c1c(O)c(-c2ccc(O)c(O)c2)oc2cc(O)cc(O)c12 [Experiment C-6, Quercetin] |
